Results published in patent US6034251A, “Phenyl-alkyl-imidazoles” (Schering Corporation, priority 1998, dated 2000).

What was measured:
H3 receptors = target: T1, H3 receptors (Cavia porcellus, UniProt Q9JI35); assay: H3 Receptor Binding Assay; details: guinea pig brain membranes; 3 nM [3H]R-α-methylhistamine or 3 nM [3H]Nα-methylhistamine; 50 mM Tris pH 7.5, 30° C., 30 min
T1 construct: The source of the H3 receptors in this experiment was guinea pig brain; from tissue; host or cells: guinea pig brain membranes
Procedure: The source of the H3 receptors in this experiment was guinea pig brain. The animals weighed 400-600 g. The brain tissue was homogenized using a Polytron in a solution of 50 mM Tris, pH 7.5. The final concentration of tissue in the homogenization buffer was 10% w/v. The homogenates were centrifuged at 1,000×g for 10 min. in order to remove clumps of tissue and debris. The resulting supernatants were then centrifuged at 50,000×g for 20 min. in order to sediment the membranes, which were next washed three times in homogenization buffer (50,000×g for 20 min. each). The membranes were frozen and stored at -70° C. until needed.
All compounds to be tested were dissolved in DMSO and then diluted into the binding buffer (50 mM Tris, pH 7.5) such that the final concentration was 2 μg/ml with 0.1% DMSO. Membranes were then added (400 μg of protein) to the reaction tubes. The reaction was started by the addition of 3 nM [^3 H]R-α-methylhistamine (8.8 Ci/mmol) or 3 nM [^3 H]N^α -methylhistamine (80 Ci/mmol) and continued under incubation at 30° C. for 30 min. Bound ligand was separated from unbound ligand by filtration, and the amount of radioactive ligand bound to the membranes was quantitated by liquid scintillation spectrometry. All incubations were performed in duplicate and the standard error was always less than 10%. Compounds that inhibited more than 70% of the specific binding of radioactive ligand to the receptor were serially diluted to determine a Ki (nM).

histamine H3 receptor = details: mice, electrically induced convulsions; cited from earlier work

T1 sequence (Q9JI35 whole entry): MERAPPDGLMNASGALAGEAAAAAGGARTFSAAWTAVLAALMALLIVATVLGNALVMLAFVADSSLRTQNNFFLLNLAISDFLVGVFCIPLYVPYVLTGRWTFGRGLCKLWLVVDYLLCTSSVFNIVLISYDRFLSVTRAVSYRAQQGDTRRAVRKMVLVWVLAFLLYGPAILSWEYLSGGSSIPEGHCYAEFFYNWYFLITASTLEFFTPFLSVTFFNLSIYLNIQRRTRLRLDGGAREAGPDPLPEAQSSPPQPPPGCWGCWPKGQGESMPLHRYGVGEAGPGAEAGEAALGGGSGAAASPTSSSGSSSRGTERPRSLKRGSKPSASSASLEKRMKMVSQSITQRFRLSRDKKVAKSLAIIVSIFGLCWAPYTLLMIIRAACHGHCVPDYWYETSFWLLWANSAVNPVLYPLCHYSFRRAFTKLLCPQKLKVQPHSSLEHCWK

Structure (SMILES) | Ki (H3 receptors) | further results
O=C(/C=C/c1ccc(Cc2c[nH]cn2)cc1)Nc1ccc(Cl)cc1 [Compound 1] | 2 nM | –
O=C(/C=C/c1ccc(Cc2c[nH]cn2)cc1)NCc1ccc(Cl)cc1 [Compound 2] | 23 nM | –
O=C(/C=C/c1ccc(Cc2c[nH]cn2)cc1)NCCc1ccc(Cl)cc1 [Compound 3] | 7 nM | –
CN(C(=O)/C=C/c1ccc(Cc2c[nH]cn2)cc1)c1ccc(Cl)cc1 [Compound 4] | 45 nM | –
CN(CCc1ccc(Cl)cc1)C(=O)/C=C/c1ccc(Cc2c[nH]cn2)cc1 [Compound 5] | 35 nM | –
O=C(/C=C/c1ccc(Cc2c[nH]cn2)cc1)Nc1ccccc1 [Compound 6] | 2 nM | –
O=C(/C=C/c1ccc(Cc2c[nH]cn2)cc1)NC1CCCCC1 [Compound 7] | 26 nM | –
O=C(/C=C/c1ccc(Cc2c[nH]cn2)cc1)NCCc1cccc(Cl)c1 [Compound 8] | 11 nM | –
CC(Cc1ccc(Cl)cc1)NC(=O)/C=C/c1ccc(Cc2c[nH]cn2)cc1 (stereo not drawn) [Compound 9] | 10 nM | –
CC(CNC(=O)/C=C/c1ccc(Cc2c[nH]cn2)cc1)c1ccccc1 (stereo not drawn) [Compound 10] | 19 nM | –
COc1ccc(CCNC(=O)/C=C/c2ccc(Cc3c[nH]cn3)cc2)cc1 [Compound 11] | 7 nM | –
O=C(/C=C/c1ccc(Cc2c[nH]cn2)cc1)NCCc1c[nH]c2ccccc12 [Compound 12] | 45 nM | –
Cn1cnc(Cc2ccc(/C=C/C(=O)Nc3ccc(Cl)cc3)cc2)c1 [Compound 13] | 270 nM | –
O=C(/C=C/c1ccc(Cc2c[nH]cn2)cc1)NCCc1ccsc1 [Compound 15] | 12 nM | –
O=C(/C=C/c1ccc(Cc2c[nH]cn2)cc1)NCCc1cccc(F)c1 [Compound 16] | 10 nM | –
O=C(/C=C/c1ccc(Cc2c[nH]cn2)cc1)NCCc1cccnc1 [Compound 17] | 190 nM | –
O=C(/C=C/c1ccc(Cc2c[nH]cn2)cc1)NCCc1ccccc1F [Compound 18] | 10 nM | –
O=C(/C=C/c1ccc(Cc2c[nH]cn2)cc1)NCCc1ccccc1Cl [Compound 19] | 12 nM | –
O=C(/C=C/c1ccc(Cc2c[nH]cn2)cc1)NCCCN1CCCC1 [Compound 20] | 580 nM | –

Structure (SMILES) | Ki (H3 receptors) | further results
O=C(/C=C/c1ccc(Cc2c[nH]cn2)cc1)NCc1ccco1 [Compound 21] | 110 nM | –
Cc1ccc(CCNC(=O)/C=C/c2ccc(Cc3c[nH]cn3)cc2)cc1 [Compound 22] | 6 nM | –
CC(CCc1ccccc1)NC(=O)/C=C/c1ccc(Cc2c[nH]cn2)cc1 (stereo not drawn) [Compound 23] | 37 nM | –
O=C(/C=C/c1ccc(Cc2c[nH]cn2)cc1)NC1CCCc2ccccc21 (stereo not drawn) [Compound 24] | 220 nM | –
O=C(/C=C/c1ccc(Cc2c[nH]cn2)cc1)c1ccc(Cl)cc1 [Compound 25] | 400 nM | –
O=C(/C=C/c1ccc(Cc2c[nH]cn2)cc1)NCc1ccc2ccccc2c1 [Compound 26] | 200 nM | –
CN1CCCC1CCNC(=O)/C=C/c1ccc(Cc2c[nH]cn2)cc1 (stereo not drawn) [Compound 27] | 1000 nM | –
O=C(/C=C/c1ccc(Cc2c[nH]cn2)cc1)NCCc1ccc(Cl)cc1Cl [Compound 28] | 36 nM | –
O=C(/C=C/c1ccc(Cc2c[nH]cn2)cc1)NCCc1ccccc1 [Compound 29] | 17 nM | –
O=C(/C=C/c1ccc(Cc2c[nH]cn2)cc1)Nc1cc(Cl)cc(Cl)c1 [Compound 30] | 12 nM | –
O=C(/C=C/c1ccc(Cc2c[nH]cn2)cc1)Nc1cccc(Cl)c1 [Compound 31] | 4 nM | –
N#Cc1cccc(NC(=O)/C=C/c2ccc(Cc3c[nH]cn3)cc2)c1 [Compound 32] | 4 nM | –
COc1cccc(NC(=O)/C=C/c2ccc(Cc3c[nH]cn3)cc2)c1 [Compound 33] | 3 nM | –
Cc1cc(C)cc(NC(=O)/C=C/c2ccc(Cc3c[nH]cn3)cc2)c1 [Compound 34] | 2 nM | –
O=C(/C=C/c1ccc(Cc2c[nH]cn2)cc1)Nc1cccc(F)c1 [Compound 35] | 1 nM | –
O=C(/C=C/c1ccc(Cc2c[nH]cn2)cc1)Nc1ccc(F)cc1 [Compound 36] | 5 nM | –
O=C(/C=C/c1ccc(Cc2c[nH]cn2)cc1)Nc1cccc(OC(F)(F)F)c1 [Compound 37] | 8 nM | –
O=C(/C=C/c1ccc(Cc2c[nH]cn2)cc1)Nc1ccc(OC(F)(F)F)cc1 [Compound 38] | 10 nM | –
S=C(NC1CCCCC1)N1CCC(c2cnc[nH]2)CC1 [thioperamide] | – | duration of each phase of convulsion (histamine H3 receptor): decreased; electroconvulsive threshold (histamine H3 receptor): raised
